Laboratory results reported in patent US7592336B2, “Hepatitis C virus inhibitors” (Bristol-Myers Squibb Company, priority 2005, dated 2009).

Columns and labels:
[1] = test system: HCV replicon in HUH-7 cells; test: HCV replicon FRET assay; assay type: cell-based, HCV strain 1b; settings: Hepatitis C virus, Huh-7; HCV replicon cell assay; read-out: Activity Range (EC50)
From the text: An HCV replicon whole cell system was established as described by Lohmann V, Korner F, Koch J, Herian U, Theilmann L, Bartenschlager R., Science 285(5424):110-3 (1999). This system enabled us to evaluate the effects of our HCV Protease compounds on HCV RNA replication. Briefly, using the HCV strain 1b sequence described in the Lohmann paper (Assession number: AJ238799), an HCV cDNA was synthesized by Operon Technologies, Inc. (Alameda, Calif.), and the full-length replicon was then assembled in plasmid pGem9zf(+) (Promega, Madison, Wis.) using standard molecular biology techniques. The replicon consists of (i) the HCV 5′ UTR fused to the first 12 amino acids of the capsid protein, (ii) the neomycin phosphotransferase gene (neo), (iii) the IRES from encephalomyocarditis virus (EMCV), and (iv) HCV NS3 to NS5B genes and the HCV 3′ UTR. Plasmid DNAs were linearized with ScaI and RNA transcripts were synthesized in vitro using the T7 MegaScript transcription kit (Ambion, Austin, Tex.) according to manufacturer's directions. In vitro transcripts of the cDNA were transfected into the human hepatoma cell line, HUH-7. […] Resulting cell lines were characterized for positive and negative strand RNA production and protein production over time.
The HCV replicon FRET assay was developed to monitor the inhibitory effects of compounds described in the disclosure on HCV viral replication. HUH-7 cells, constitutively expressing the HCV replicon, were grown in Dulbecco's Modified Eagle Media (DMEM) (Gibco-BRL) containing 10% Fetal calf serum (FCS) (Sigma) and 1 mg/ml G418 (Gibco-BRL). Cells were seeded the night before (1.5×10^4 cells/well) in 96-well tissue-culture sterile plates. Compound and no compound controls were prepared in DMEM containing 4% FCS, 1:100 Penicillin/Streptomysin (Gibco-BRL), 1:100 L-glutamine and 5% DMSO in the dilution plate (0.5% DMSO final concentration in the assay). Compound/DMSO mixes were added to the cells and incubated for 4 days at 37° C. After 4 days, cells were first assessed for cytotoxicity using alamar Blue (Trek Diagnotstic Systems) for a CC50 reading. The toxicity of compound (CC50) was determined by adding 1/10th volume of alamar Blue to the media incubating the cells. After 4 h, the fluorescence signal from each well was read, with an excitation wavelength at 530 nm and an emission wavelength of 580 nm, using the Cytofluor Series 4000 (Perspective Biosystems). Plates were then rinsed thoroughly with Phosphate-Buffered Saline (PBS) (3 times 150 μl). The cells were lysed with 25 μl of a lysis assay reagent containing an HCV protease substrate (5× cell Luciferase cell culture lysis reagent (Promega #E153A) diluted to 1× with distilled water, NaCl added to 150 mM final, the FRET peptide substrate (as described for the enzyme assay above) diluted to 10 μM final from a 2 mM stock in 100% DMSO. […]. The plate was then placed into the Cytofluor 4000 instrument which had been set to 340 nm excitation/490 nm emission, automatic mode for 21 cycles and the plate read in a kinetic mode. EC50 determinations were carried out as described for the IC50 determinations.

[2] = target: T1, HCV NS3/4A protease complex, BMS strain (UniProt P27958, species not given/STRAIN_BMS); test: FRET peptide assay to monitor HCV NS3/4A proteolytic activity (BMS strain); assay type: biochemical, HCV genotype 1a; settings: NS3/4A BMS strain; read-out: Activity Range (IC50)
T1 construct: said of H77 and J4L6S, not expressly of BMS; fused on or other part: A three-lysine solubilising tail at the NS4A C-terminus and purification on Ni-NTA are described for the H77 and J4L6S constructs
T1 sequence (P27958 1027-1657, change not shown, one chain of several): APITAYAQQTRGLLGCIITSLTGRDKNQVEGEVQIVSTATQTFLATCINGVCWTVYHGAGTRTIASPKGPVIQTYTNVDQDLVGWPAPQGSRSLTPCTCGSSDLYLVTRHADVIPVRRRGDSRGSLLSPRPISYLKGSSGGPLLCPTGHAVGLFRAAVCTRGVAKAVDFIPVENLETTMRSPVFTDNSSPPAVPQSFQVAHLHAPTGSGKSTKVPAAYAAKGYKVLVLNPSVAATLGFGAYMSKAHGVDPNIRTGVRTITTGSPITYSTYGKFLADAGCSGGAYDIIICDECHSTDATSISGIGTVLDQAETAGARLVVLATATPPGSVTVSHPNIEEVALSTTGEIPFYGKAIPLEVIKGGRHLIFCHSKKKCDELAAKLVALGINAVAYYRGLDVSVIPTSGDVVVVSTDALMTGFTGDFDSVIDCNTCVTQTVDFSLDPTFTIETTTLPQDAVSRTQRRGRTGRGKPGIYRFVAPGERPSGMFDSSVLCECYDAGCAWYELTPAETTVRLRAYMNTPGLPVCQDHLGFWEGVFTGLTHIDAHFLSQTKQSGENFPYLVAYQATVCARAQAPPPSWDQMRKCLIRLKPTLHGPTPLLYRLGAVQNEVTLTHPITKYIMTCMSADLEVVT
From the text: HCV NS3 protease complexes, derived from the BMS strain, H77 strain or J4L6S strain, were generated, as described below. These purified recombinant proteins were generated for use in a homogeneous assay (see below) to provide an indication of how effective compounds of the present disclosure would be in inhibiting HCV NS3 proteolytic activity.
Serum from an HCV-infected patient was obtained from Dr. T. Wright, San Francisco Hospital. An engineered full-length cDNA (compliment deoxyribonucleic acid) template of the HCV genome (BMS strain) was constructed from DNA fragments obtained by reverse transcription-PCR (RT-PCR) of serum RNA (ribonucleic acid) and using primers selected on the basis of homology between other genotype 1a strains. From the determination of the entire genome sequence, a genotype 1a was assigned to the HCV isolate according to the classification of Simmonds et al. (See P Simmonds, K A Rose, S Graham, S W Chan, F McOmish, B C Dow, E A Follett, P L Yap and H Marsden, J. Clin. Microbiol., 31(6), 1493-1503 (1993)). […] The infectious clones, H77 (1a genotype) and J4L6S (1b genotype) were obtained from R. Purcell (NIH) and the sequences are published in Genbank (AAB67036, see Yanagi, M., Purcell, R. H., Emerson, S. U. and Bukh, J. Proc. Natl. Acad. Sci. U.S.A. 94(16), 8738-8743 (1997); AF054247, see Yanagi, M., St Claire, M., Shapiro, M., Emerson, S. U., Purcell, R. H. and Bukh, J, Virology 244 (1), 161-172. (1998)).
NS3/4A protease complex-containing fractions were pooled and loaded on a desalting column Superdex-S200 pre-equilibrated with buffer D (25 mM HEPES, pH 7.5, 20% glycerol, 300 mM NaCl, 0.2% Triton X-100, 10 mM βME). Sample was loaded at a flow rate of 1 mL/min. NS3/4A protease complex-containing fractions were pooled and concentrated to approximately 0.5 mg/ml. The purity of the NS3/4A protease complexes, derived from the BMS, H77 and J4L6S strains, were judged to be greater than 90% by SDS-PAGE and mass spectrometry analyses. The enzyme was stored at −80° C., thawed on ice and diluted prior to use in assay buffer.
The purpose of this in vitro assay was to measure the inhibition of HCV NS3 protease complexes, derived from the BMS strain, H77 strain or J4L6S strain, as described above, by compounds of the present disclosure. This assay provides an indication of how effective compounds of the present disclosure would be in inhibiting HCV NS3 proteolytic activity.
In order to monitor HCV NS3/4A protease activity, an NS3/4A peptide substrate was used. The substrate was RET S1 (Resonance Energy Transfer Depsipeptide Substrate; AnaSpec, Inc. cat #22991) (FRET peptide), described by Taliani et al. in Anal. Biochem. 240(2):60-67 (1996). The sequence of this peptide is loosely based on the NS4A/NS4B natural cleavage site for the HCV NS3 protease except there is an ester linkage rather than an amide bond at the cleavage site. The peptide also contains a fluorescence donor, EDANS, near one end of the peptide and an acceptor, DABCYL, near the other end. The fluorescence of the peptide is quenched by […] resonance energy transfer (RET) between the donor and the acceptor, but as the NS3 protease cleaves the peptide the products are released from RET quenching and the fluorescence of the donor becomes apparent.
The peptide substrate was incubated with one of the three recombinant NS3/4A protease complexes, in the absence or presence of a compound of the present disclosure. The inhibitory effects of a compound were determined by monitoring the formation of fluorescent reaction product in real time using a Cytofluor Series 4000.
Assay buffer: 50 mM HEPES, pH 7.5; 0.15M NaCl; 0.1% Triton; 15% Glycerol; 10 mM βME. Substrate: 2 μM final concentration (from a 2 mM stock solution in DMSO stored at −20° C.). HCV NS3/4A protease type 1a (1b), 2-3 nM final concentration (from a 5 μM stock solution in 25 mM HEPES, pH 7.5, 20% glycerol, 300 mM NaCl, 0.2% Triton-X100, 10 mM βME). […]

SMILES | EC50 [1] | IC50 [2]
C=C[C@@H]1C[C@]1(NC(=O)[C@@H]1C[C@@](O)(c2ccccc2CN2CCOCC2)CN1C(=O)[C@@H](NC(=O)OC(C)(C)C)C(C)(C)C)C(=O)NS(=O)(=O)C1CC1 [Compound 20] | 1 to 10 µM | 0.1 to 1 µM
C=C[C@@H]1C[C@]1(NC(=O)[C@@H]1C[C@@](O)(c2cccc(Cl)c2)CN1C(=O)[C@@H](NC(=O)OC(C)(C)C)C(C)(C)C)C(=O)NS(=O)(=O)C1CC1 [Compound 12] | 1 to 10 µM | 0.001 to 0.1 µM
C=C[C@@H]1C[C@]1(NC(=O)[C@@H]1C[C@@](O)(c2cccc(OC)c2)CN1C(=O)[C@@H](NC(=O)OC(C)(C)C)C(C)(C)C)C(=O)NS(=O)(=O)C1CC1 [Compound 11] | 1 to 10 µM | 0.001 to 0.1 µM
C=C[C@@H]1C[C@]1(NC(=O)[C@@H]1C[C@@H](c2ccccc2)CN1C(=O)[C@@H](NC(=O)OC(C)(C)C)C(C)(C)C)C(=O)NS(=O)(=O)C1CC1 [Compound 1] | 1 to 10 µM | 0.1 to 1 µM
C=C[C@@H]1C[C@]1(NC(=O)[C@@H]1C[C@@](O)(c2cccc(N(C)C)c2)CN1C(=O)[C@@H](NC(=O)OC(C)(C)C)C(C)(C)C)C(=O)NS(=O)(=O)C1CC1 [Compound 16] | > 10 µM | 0.1 to 1 µM
C=C[C@@H]1C[C@]1(NC(=O)[C@@H]1C[C@@](O)(c2ccc3ccccc3c2)CN1C(=O)[C@@H](NC(=O)OC(C)(C)C)C(C)(C)C)C(=O)NS(=O)(=O)C1CC1 [Compound 5] | 0.01 to 1 µM | 0.001 to 0.1 µM
C=C[C@@H]1C[C@]1(NC(=O)[C@@H]1C[C@@](O)(c2cccc(C(C)C)c2)CN1C(=O)[C@@H](NC(=O)OC(C)(C)C)C(C)(C)C)C(=O)NS(=O)(=O)C1CC1 [Compound 14] | 1 to 10 µM | 0.1 to 1 µM
C=C[C@@H]1C[C@]1(NC(=O)[C@@H]1C[C@@](O)(c2cc(C)cc(C)c2)CN1C(=O)[C@@H](NC(=O)OC(C)(C)C)C(C)(C)C)C(=O)NS(=O)(=O)C1CC1 [Compound 21] | 1 to 10 µM | 0.001 to 0.1 µM
C=C[C@@H]1C[C@]1(NC(=O)[C@@H]1C[C@@](O)(c2cc(F)ccc2OC)CN1C(=O)[C@@H](NC(=O)OC(C)(C)C)C(C)(C)C)C(=O)NS(=O)(=O)C1CC1 [Compound 25] | 1 to 10 µM | 0.1 to 1 µM
C=C[C@@H]1C[C@]1(NC(=O)[C@@H]1C[C@@](O)(c2cccc(CN3CCCCC3)c2)CN1C(=O)[C@@H](NC(=O)OC(C)(C)C)C(C)(C)C)C(=O)NS(=O)(=O)C1CC1 [Compound 18] | > 10 µM | 0.1 to 1 µM
C=C[C@@H]1C[C@]1(NC(=O)[C@@H]1C[C@@](O)(c2cccc(F)c2)CN1C(=O)[C@@H](NC(=O)OC(C)(C)C)C(C)(C)C)C(=O)NS(=O)(=O)C1CC1 [Compound 10] | 1 to 10 µM | 0.001 to 0.1 µM
C=C[C@@H]1C[C@]1(NC(=O)[C@@H]1C[C@@](O)(c2ccc(C)c(F)c2)CN1C(=O)[C@@H](NC(=O)OC(C)(C)C)C(C)(C)C)C(=O)NS(=O)(=O)C1CC1 [Compound 23] | 1 to 10 µM | 0.1 to 1 µM
C=C[C@@H]1C[C@]1(NC(=O)[C@@H]1C[C@@](O)(c2cccc(CN3CCCC3)c2)CN1C(=O)[C@@H](NC(=O)OC(C)(C)C)C(C)(C)C)C(=O)NS(=O)(=O)C1CC1 [Compound 17] | > 10 µM | 0.1 to 1 µM
C=C[C@@H]1C[C@]1(NC(=O)[C@@H]1C[C@@](O)(c2ccc(OC)cc2)CN1C(=O)[C@@H](NC(=O)OC(C)(C)C)C(C)(C)C)C(=O)NS(=O)(=O)C1CC1 [Compound 7] | 1 to 10 µM | 0.1 to 1 µM
C=CC[C@]1(O)C[C@@H](C(=O)N[C@]2(C(=O)NS(=O)(=O)C3CC3)C[C@H]2C=C)N(C(=O)[C@@H](NC(=O)OC(C)(C)C)C(C)(C)C)C1 [Compound 9] | > 10 µM | > 1 µM
C=C[C@@H]1C[C@]1(NC(=O)[C@@H]1C[C@@H](Cc2ccccc2)CN1C(=O)[C@@H](NC(=O)OC(C)(C)C)C(C)(C)C)C(=O)NS(=O)(=O)C1CC1 [Compound 2] | > 10 µM | > 1 µM
C=C[C@@H]1C[C@]1(NC(=O)[C@@H]1C[C@@](O)(c2ccccc2)CN1C(=O)[C@@H](NC(=O)OC(C)(C)C)C(C)(C)C)C(=O)NS(=O)(=O)C1CC1 [Compound 4] | 1 to 10 µM | 0.1 to 1 µM
C=C[C@@H]1C[C@]1(NC(=O)[C@@H]1C[C@@](O)(c2cccc(OC(C)C)c2)CN1C(=O)[C@@H](NC(=O)OC(C)(C)C)C(C)(C)C)C(=O)NS(=O)(=O)C1CC1 [Compound 15] | 1 to 10 µM | 0.1 to 1 µM
C=C[C@@H]1C[C@]1(NC(=O)[C@@H]1C[C@@](O)(c2cccc(CN3CCOCC3)c2)CN1C(=O)[C@@H](NC(=O)OC(C)(C)C)C(C)(C)C)C(=O)NS(=O)(=O)C1CC1 [Compound 19] | > 10 µM | 0.1 to 1 µM
C=C[C@@H]1C[C@]1(NC(=O)[C@@H]1C[C@@](O)(c2cc(C)ccc2C)CN1C(=O)[C@@H](NC(=O)OC(C)(C)C)C(C)(C)C)C(=O)NS(=O)(=O)C1CC1 [Compound 24] | 1 to 10 µM | 0.1 to 1 µM
